From ChEMBL document CHEMBL1938324 (Bioorg Med Chem Lett, 2012)
Substitutions are numbered along the chain they refer to. Active and inactive are the calls of the source. The rule behind the calls is not given here.

Experiments:
[1] = target: T1, Muscarinic acetylcholine receptor M1 (Homo sapiens, UniProt P11229); experiment: Antagonist activity at human muscarinic M1 receptor expressed in CHO cells assessed as inhibition of acetylcholine-induced calcium mobilization by fluorescence assay; assay type: functional, cell-based
T1 sequence (P11229 whole entry): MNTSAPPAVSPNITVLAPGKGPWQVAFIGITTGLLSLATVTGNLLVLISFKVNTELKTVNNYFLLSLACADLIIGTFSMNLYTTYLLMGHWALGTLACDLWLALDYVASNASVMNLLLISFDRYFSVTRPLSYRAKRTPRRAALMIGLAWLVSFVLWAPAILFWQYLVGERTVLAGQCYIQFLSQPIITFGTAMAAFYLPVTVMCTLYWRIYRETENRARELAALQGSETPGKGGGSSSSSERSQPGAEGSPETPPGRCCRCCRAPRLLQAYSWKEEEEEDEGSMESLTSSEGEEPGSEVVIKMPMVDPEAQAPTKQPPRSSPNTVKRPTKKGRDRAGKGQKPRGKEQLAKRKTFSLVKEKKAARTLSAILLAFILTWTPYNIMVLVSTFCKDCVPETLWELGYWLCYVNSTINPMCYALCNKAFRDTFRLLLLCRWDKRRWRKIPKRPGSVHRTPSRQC

[2] = target: T2, Muscarinic acetylcholine receptor M1 (Homo sapiens) (UniProt P11229); experiment: Antagonist activity at human muscarinic M1 receptor expressed in CHO cells assessed as residual activity at 30 uM by fluorescence assay; assay type: functional, cell-based
T2 sequence (whole entry): T1 sequence (P11229 whole entry)

[3] = target: T3, Muscarinic acetylcholine receptor M1 (Rattus norvegicus, UniProt P08482); experiment: Antagonist activity at rat muscarinic M1 receptor expressed in CHO cells assessed as inhibition of acetylcholine-induced calcium mobilization by fluorescence assay; assay type: functional, cell-based
T3 sequence (P08482 whole entry): T1 sequence (P11229 whole entry) with A5V, T254S, P309S, R320K, A337G, I413V

[4] = Clearance in iv dosed Sprague-Dawley rat; assay type: ADME, organism-based; conditions: in vivo
[5] = tested on: Rattus norvegicus; experiment: Half life in iv dosed Sprague-Dawley rat; assay type: ADME, organism-based; conditions: in vivo
[6] = target: T4, Muscarinic acetylcholine receptor M2 (Homo sapiens, UniProt P08172); experiment: Antagonist activity at human muscarinic M2 receptor expressed in CHO cells assessed as inhibition of acetylcholine-induced calcium mobilization by fluorescence assay; assay type: functional, cell-based
T4 sequence (P08172 whole entry): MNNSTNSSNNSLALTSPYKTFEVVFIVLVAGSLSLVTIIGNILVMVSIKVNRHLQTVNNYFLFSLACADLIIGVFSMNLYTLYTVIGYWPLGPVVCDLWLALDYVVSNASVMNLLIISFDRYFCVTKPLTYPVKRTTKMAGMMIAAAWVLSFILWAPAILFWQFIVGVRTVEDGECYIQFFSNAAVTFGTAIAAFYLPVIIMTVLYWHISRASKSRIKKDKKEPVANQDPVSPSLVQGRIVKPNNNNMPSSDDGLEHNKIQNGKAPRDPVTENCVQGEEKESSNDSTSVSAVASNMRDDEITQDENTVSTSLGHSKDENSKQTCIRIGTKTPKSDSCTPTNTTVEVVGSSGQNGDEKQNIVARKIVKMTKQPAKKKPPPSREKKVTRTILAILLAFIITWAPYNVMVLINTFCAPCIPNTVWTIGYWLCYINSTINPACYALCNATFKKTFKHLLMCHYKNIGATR

[7] = Oral bioavailability in Sprague-Dawley rat at 10 mg/kg; assay type: ADME, organism-based; conditions: in vivo
[8] = target: T5, Muscarinic acetylcholine receptor M5 (Homo sapiens, UniProt P08912); experiment: Antagonist activity at human muscarinic M5 receptor expressed in CHO cells assessed as inhibition of acetylcholine-induced calcium mobilization by fluorescence assay; assay type: functional, cell-based
T5 sequence (P08912 whole entry): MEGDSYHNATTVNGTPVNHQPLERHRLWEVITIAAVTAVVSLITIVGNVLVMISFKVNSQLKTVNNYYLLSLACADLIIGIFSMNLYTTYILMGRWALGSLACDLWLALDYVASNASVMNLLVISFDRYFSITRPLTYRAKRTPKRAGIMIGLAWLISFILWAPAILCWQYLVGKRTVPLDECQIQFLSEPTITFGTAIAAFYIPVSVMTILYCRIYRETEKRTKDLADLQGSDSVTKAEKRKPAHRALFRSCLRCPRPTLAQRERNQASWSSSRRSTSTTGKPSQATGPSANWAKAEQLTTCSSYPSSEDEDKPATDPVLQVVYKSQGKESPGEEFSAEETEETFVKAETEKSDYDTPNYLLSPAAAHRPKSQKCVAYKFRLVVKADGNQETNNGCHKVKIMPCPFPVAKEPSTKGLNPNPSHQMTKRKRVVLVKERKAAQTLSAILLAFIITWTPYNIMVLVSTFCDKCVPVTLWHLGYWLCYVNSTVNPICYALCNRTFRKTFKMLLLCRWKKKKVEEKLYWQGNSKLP

[9] = target: T6, Muscarinic acetylcholine receptor M4 (Homo sapiens, UniProt P08173); experiment: Antagonist activity at human muscarinic M4 receptor expressed in CHO cells assessed as inhibition of acetylcholine-induced calcium mobilization by fluorescence assay; assay type: functional, cell-based
T6 sequence (P08173 whole entry): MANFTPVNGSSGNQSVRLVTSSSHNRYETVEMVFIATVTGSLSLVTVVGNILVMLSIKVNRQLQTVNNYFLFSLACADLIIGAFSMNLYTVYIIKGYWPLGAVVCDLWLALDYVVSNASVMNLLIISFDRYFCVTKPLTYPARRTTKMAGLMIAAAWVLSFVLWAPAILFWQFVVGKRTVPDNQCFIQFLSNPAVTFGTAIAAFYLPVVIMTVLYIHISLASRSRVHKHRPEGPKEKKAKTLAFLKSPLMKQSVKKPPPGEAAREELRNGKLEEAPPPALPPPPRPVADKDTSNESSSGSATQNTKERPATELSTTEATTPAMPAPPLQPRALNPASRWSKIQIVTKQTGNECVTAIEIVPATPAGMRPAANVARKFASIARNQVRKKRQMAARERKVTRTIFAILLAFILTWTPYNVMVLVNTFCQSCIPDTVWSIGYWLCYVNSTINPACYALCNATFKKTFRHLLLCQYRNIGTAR

[10] = target: Muscarinic acetylcholine receptor M3 (Homo sapiens, UniProt P20309); experiment: Antagonist activity at human muscarinic M3 receptor expressed in CHO cells assessed as inhibition of acetylcholine-induced calcium mobilization by fluorescence assay; assay type: functional, cell-based
[11] = target: T2, Muscarinic acetylcholine receptor M1 (Homo sapiens); experiment: Ratio of ML012 IC50 to compound IC50 for human muscarinic M1 receptor
[12] = target: T2, Muscarinic acetylcholine receptor M1 (Homo sapiens); experiment: Inhibition of human muscarinic M1 receptor expressed in CHO cells assessed as inhibition of acetylcholine-induced calcium mobilization at 30 uM by fluorescence assay; assay type: functional, cell-based

Chain of Muscarinic acetylcholine receptor M3 (P20309 whole entry): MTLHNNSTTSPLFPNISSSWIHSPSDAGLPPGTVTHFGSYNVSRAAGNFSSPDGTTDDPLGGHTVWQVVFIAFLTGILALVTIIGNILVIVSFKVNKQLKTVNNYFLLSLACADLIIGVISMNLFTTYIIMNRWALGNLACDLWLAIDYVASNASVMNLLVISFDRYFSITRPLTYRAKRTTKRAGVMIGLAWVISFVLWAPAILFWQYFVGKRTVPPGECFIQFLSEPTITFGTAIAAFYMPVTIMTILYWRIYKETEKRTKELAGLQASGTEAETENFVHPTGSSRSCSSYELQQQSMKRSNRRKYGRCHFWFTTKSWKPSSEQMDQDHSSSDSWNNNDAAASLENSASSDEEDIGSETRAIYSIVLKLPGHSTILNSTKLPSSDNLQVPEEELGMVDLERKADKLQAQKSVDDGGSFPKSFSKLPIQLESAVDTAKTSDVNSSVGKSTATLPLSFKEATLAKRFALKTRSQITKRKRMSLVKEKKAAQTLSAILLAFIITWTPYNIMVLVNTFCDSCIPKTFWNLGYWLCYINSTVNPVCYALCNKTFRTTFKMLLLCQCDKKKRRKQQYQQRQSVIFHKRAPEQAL

Structure (SMILES)	IC50 [1] [µM]	further results
O=C(CCNS(=O)(=O)c1cccc2nsnc12)N1CCN(c2nc3ccccc3o2)CC1	> 10	–
CC(=O)Nc1nc(C)c(S(=O)(=O)NCCC(=O)N2CCN(c3ccc(Br)cn3)CC2)s1	> 10	–
O=S(=O)(NCCCN1CCN(c2ccncc2)CC1)c1cccc2nsnc12	> 10	Activity [2]: 17%
Cc1ccc2nonc2c1S(=O)(=O)NCCC(=O)N1CCN(c2ccc(Br)cn2)CC1	> 10	–
O=C(CCNS(=O)(=O)c1cccc2ncccc12)N1CCN(c2ccncc2)CC1	0.4	IC50 [3]: 0.18 µM; clearance [4]: 77 mL/min/kg; t1/2 [5]: 40 min; IC50 [6]: > 30 µM; bioavailability [7]: < 10%; IC50 [8]: > 30 µM; IC50 [9]: > 30 µM; IC50 [10]: > 30 µM
O=C(CCNS(=O)(=O)c1cccc2cccnc12)N1CCN(c2ccc(Br)cn2)CC1	> 10	–
O=C(CCNS(=O)(=O)c1cccc2nonc12)N1CCN(c2ccc(Br)cn2)CC1	1.1	–
O=C(CCNS(=O)(=O)c1cccc2nsnc12)N1CCN(c2ccc(Br)cn2)CC1	0.32	Ratio IC50 [11]: 2
Cc1cccc(N2CCN(C(=O)CCNS(=O)(=O)c3cccc4nsnc34)CC2)n1	> 10	–
O=C(CCNS(=O)(=O)c1ccc(F)c2nonc12)N1CCN(c2ccc(Br)cn2)CC1	4.8	–
O=C(CCNS(=O)(=O)c1cccc2nsnc12)N1CCN(c2cccc(F)n2)CC1	> 10	–
O=C(CCNS(=O)(=O)c1cccc2nsnc12)N1CCN(c2ccnc(F)c2)CC1	> 10	–
C[C@@H](CC(=O)N1CCN(c2ccncc2)CC1)NS(=O)(=O)c1cccc2nonc12	–	inhibition [12]: 30%
Cc1cnccc1N1CCN(C(=O)CCNS(=O)(=O)c2cccc3nsnc23)CC1	2	–
O=C(CCNS(=O)(=O)c1cccc2nsnc12)N1CCN(c2ncccn2)CC1	> 10	–
O=C(CCNS(=O)(=O)c1cccc2nsnc12)N1CCN(c2ncc(Cl)cn2)CC1	> 10	–
O=C(CCNS(=O)(=O)c1cccc2scnc12)N1CCN(c2ccncc2)CC1	> 10	–
COc1cccc(S(=O)(=O)NCCC(=O)N2CCN(c3ccc(Br)cn3)CC2)c1	> 10	–
O=C(CCNS(=O)(=O)c1cccc2ncccc12)N1CCN(c2ccc(Br)cn2)CC1	2.1	–
O=C(CCNS(=O)(=O)c1cccnc1)N1CCN(c2ccncc2)CC1	> 10	–

Structure (SMILES)	IC50 [1] [µM]	further results
O=C(CCNS(=O)(=O)c1cccc2nsnc12)N1CCN(c2nc3ccccc3s2)CC1	> 10	–
O=C(CCNS(=O)(=O)c1cccc2nsnc12)N1CCN(c2ccnc(Cl)c2)CC1	> 10	–
O=C(CCNS(=O)(=O)c1cccc2ccccc12)N1CCN(c2ccc(Br)cn2)CC1	> 10	–
C[C@H](CC(=O)N1CCN(c2ccncc2)CC1)NS(=O)(=O)c1cccc2nonc12	–	inhibition [12]: inactive
CN(C)c1cccc2c(S(=O)(=O)NCCC(=O)N3CCN(c4ccncc4)CC3)cccc12	> 10	–
O=C(CCNS(=O)(=O)c1cccc2nonc12)N1CCN(c2ccncc2)CC1	2.6	–
O=C(CCNS(=O)(=O)c1cccc2nsnc12)N1CCN(c2ccncc2)CC1	0.69	IC50 [3]: 0.24 µM
O=C(CCNS(=O)(=O)c1cccc(-n2cnnn2)c1)N1CCN(c2ccncc2)CC1	> 10	–
O=C(CCNS(=O)(=O)c1cccc2nsnc12)N1CCN(c2cc(Cl)ccn2)CC1	4.5	–
O=C(CCNS(=O)(=O)c1c(Cl)ccc2nonc12)N1CCN(c2ccc(Br)cn2)CC1	> 10	–
CN(CCC(=O)N1CCN(c2ccncc2)CC1)S(=O)(=O)c1cccc2nsnc12	> 10	–
O=C(CCNS(=O)(=O)c1cccc2nsnc12)N1CCN(c2cccc(Cl)n2)CC1	> 10	–
O=C(CCNS(=O)(=O)c1cccc2nsnc12)N1CCN(c2ccccn2)CC1	> 10	–
Cc1ccc2nsnc2c1S(=O)(=O)NCCC(=O)N1CCN(c2ccncc2)CC1	> 10	–
Cc1ccc2nonc2c1S(=O)(=O)NCCC(=O)N1CCN(c2ccncc2)CC1	> 10	–
O=C(CCNS(=O)(=O)c1cccc2nsnc12)N1CCN(c2nccs2)CC1	> 10	–
O=C(C(F)CNS(=O)(=O)c1cccc2nonc12)N1CCN(c2ccncc2)CC1 (racemic)	–	Activity [2]: 25%
O=C(CCNS(=O)(=O)c1ccc2nsnc2c1)N1CCN(c2ccncc2)CC1	> 10	–
Cc1ccnc(N2CCN(C(=O)CCNS(=O)(=O)c3cccc4nsnc34)CC2)c1	> 10	–
